Read-outs that look alike come from different tables or passages of the source.
What was measured:
B. cenocepacia C5424 = assay type: cell-based, Burkholderia cenocepacia; details: 24 h culture, OD597
Pseudomonas aeruginosa = experiment: Murine model of systemic infection, intraperitoneal; details: 1 mg/Kg NTBC daily

With `O=C1CCCC(=O)C1C(=O)c1ccc(C(F)(F)F)cc1[N+](=O)[O-]` [NTBC, 2-(2-nitro-4-trifluoromethylbenzoyl)-1,3-cyclohexanedione] the “pigment production relative to untreated C5424” value (B. cenocepacia C5424; 10 μM NTBC) was 31.95±3.96%, the “pigment production relative to untreated C5424” value (B. cenocepacia C5424; 100 μM NTBC) was 26.89±0.59% and the “time to return to normal growth (weight) after administration” value (Pseudomonas aeruginosa) was no more than 24 h. The “survival rate versus infected untreated mice” value (Pseudomonas aeruginosa; 3.2×10^8 CFU P. aeruginosa) was “three-fold higher survival rate”.
